Measurements: ChEMBL document CHEMBL4673331 (J Med Chem, 2020)
pIC50: −log10 of the molar value. ≈ marks a conversion by molar mass, not a printed value. Calls of active or inactive are those of the source. The calls are words filed in the database; no cut-off is given here.

Key:
[1] = Half-life in Balb/c mouse at 1 mg/kg, iv administered as cassette dosing; assay type: ADME, organism-based; settings: in vivo
OCI-Ly3 [2] = assay: Antiproliferation activity against human OCI-LY3 cells assessed as reduction in cell viability incubated for 14 days by resazurin dye-based fluorescence analysis; assay type: functional; settings: OCI-Ly3, 336 h
[3] = Permeability of compound by PAMPA assay; assay type: ADME
TMD8 = assay: Antitumor activity against human TMD8 cells xenografted in SCID mouse assessed as tumor stasis at 100 mg/kg, po BID administered for 2 weeks; assay type: functional, organism-based
[4] = Dose normalized AUC (0 to 24 hrs) in Sprague-Dawley rat at 3 mg/kg, po administered as cassette dosing; assay type: ADME, organism-based; settings: in vivo
[5] = Tmax in human TMD8 cells xenografted SCID mouse at 100 mg/kg, po qd by UPLC-MS/MS analysis; assay type: ADME, organism-based; settings: in vivo
[6] = Toxicity in Balb/c mouse assessed as change in body weight at 10 to 100 mg/kg, po BID administered at 12 hrs interval immunized post 1 hr first treatment; assay type: organism-based; settings: in vivo, dose 10-100 mg/kg
[7] = Drug concentration in Balb/c mouse blood at 30 mg/kg, po BID by LC-MS/MS analysis; assay type: ADME, organism-based; settings: in vivo, read-out: Drug uptake
[8] = Inhibition of mixed lymphocyte reaction in rat PBMC cells assessed as reduction in [3H]-thymidine incorporation measured after 5 days in presence of Il-7 by microbeta counting method; assay type: cell-based
[9] = Clearance in Balb/c mouse at 1 mg/kg, iv administered as cassette dosing; assay type: ADME, organism-based; settings: in vivo
[10] = Protein binding in rat plasma; assay type: ADME, cell-free; settings: read-out: PPB (converted)
Mus musculus [11] = assay: Anti-autoimmune disease activity in Balb/c mouse assessed as reduction in anti-DNP induced IgG producing B cells at 30 mg/kg, po administered twice at 12 hrs interval immunized post 1 hr first treatment measured after 8 days by ELISA relative to control; assay type: functional, organism-based; settings: time 8.0 day
Mus musculus [12] = assay: Immunomodulatory activity in human TMD8 cells xenografted po dosed SCID mouse assessed as increase in levels of uncleaved BCL10 in tumor administered twice daily for 2 weeks; assay type: functional, organism-based; settings: dose mg/kg 10-100, time 2.0 weeks
[13] = Volume of distribution at steady state in Sprague-Dawley rat at 1 mg/kg, iv administered as cassette dosing; assay type: ADME, organism-based; settings: in vivo, read-out: Vdss
[14] = Dose normalized AUC (0 to 24 hrs) in Balb/c mouse at 3 mg/kg, po administered as cassette dosing; assay type: ADME, organism-based; settings: in vivo
[15] = target: T1, Mucosa-associated lymphoid tissue lymphoma translocation protein 1 (Homo sapiens, UniProt Q9UDY8); assay: Allosteric inhibition of human wild-type […] MALT1 (329 to 824 residues) protease activity using Ac-Leu-Arg-Ser-Arg Rh110-dPro as substrate preincubated for 60 mins followed by substrate addition and measured after 60 mins by fluorescence assay
T1 sequence (Q9UDY8 whole entry): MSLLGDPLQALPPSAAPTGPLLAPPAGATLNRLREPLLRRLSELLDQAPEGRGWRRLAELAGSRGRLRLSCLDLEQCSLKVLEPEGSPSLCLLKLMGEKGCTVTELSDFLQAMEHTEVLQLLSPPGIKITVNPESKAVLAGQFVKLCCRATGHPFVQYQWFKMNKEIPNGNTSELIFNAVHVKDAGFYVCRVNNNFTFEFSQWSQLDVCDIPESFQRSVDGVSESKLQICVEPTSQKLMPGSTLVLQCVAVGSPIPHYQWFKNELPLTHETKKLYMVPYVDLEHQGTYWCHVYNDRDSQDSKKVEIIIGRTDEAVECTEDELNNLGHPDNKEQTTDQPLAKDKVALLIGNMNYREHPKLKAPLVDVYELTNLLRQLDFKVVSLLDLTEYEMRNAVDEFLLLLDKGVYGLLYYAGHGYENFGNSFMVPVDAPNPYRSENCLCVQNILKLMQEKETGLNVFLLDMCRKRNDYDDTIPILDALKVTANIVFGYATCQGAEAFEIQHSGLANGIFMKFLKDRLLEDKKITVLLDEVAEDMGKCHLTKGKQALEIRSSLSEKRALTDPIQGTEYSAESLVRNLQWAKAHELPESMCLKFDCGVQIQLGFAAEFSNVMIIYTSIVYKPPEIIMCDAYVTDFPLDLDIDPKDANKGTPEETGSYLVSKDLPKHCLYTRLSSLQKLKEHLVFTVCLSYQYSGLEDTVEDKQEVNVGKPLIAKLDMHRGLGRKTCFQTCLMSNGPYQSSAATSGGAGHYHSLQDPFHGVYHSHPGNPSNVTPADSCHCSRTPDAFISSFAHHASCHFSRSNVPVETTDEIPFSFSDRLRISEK

[16] = Oral bioavailability in Balb/c mouse at 3 mg/kg administered as cassette dosing; assay type: ADME, organism-based; settings: in vivo
[17] = Volume of distribution at steady state in Balb/c mouse at 1 mg/kg, iv administered as cassette dosing; assay type: ADME, organism-based; settings: in vivo, read-out: Vdss
[18] = Protein binding in mouse plasma; assay type: ADME, cell-free; settings: read-out: PPB (converted)
Mus musculus [19] = assay: Anti-autoimmune disease activity in Balb/c mouse assessed as reduction in anti-DNP induced IgM producing B cells at 30 mg/kg, po administered twice at 12 hrs interval immunized post 1 hr first treatment measured after 8 days by ELISA relative to control; assay type: functional; parameters: scale not given: the % may be the effect or the level left; settings: time 8 day
[20] = Drug concentration in Balb/c mouse blood at 100 mg/kg, po BID by LC-MS/MS analysis; assay type: ADME, organism-based; settings: in vivo, read-out: Drug uptake
[21] = Toxicity in Balb/c mouse assessed as histopathological changes at 10 to 100 mg/kg, po BID administered at 12 hrs interval immunized post 1 hr first treatment; assay type: organism-based; settings: in vivo, dose 10-100 mg/kg
[22] = target: T1, Mucosa-associated lymphoid tissue lymphoma translocation protein 1; assay: Allosteric inhibition of MALT1 in human OCI-LY3 cells assessed as reduction in BCL10 cleavage measured after 24 hrs by ELISA; assay type: cell-based, OCILY3
[23] = Oral bioavailability in Sprague-Dawley rat at 3 mg/kg administered as cassette dosing; assay type: ADME, organism-based; settings: in vivo
BJAB = assay: Antiproliferation activity against human BJAB cells assessed as reduction in cell viability incubated for 14 days by resazurin dye-based fluorescence analysis; assay type: functional; settings: 336 h
[24] = target: T2, Mucosa-associated lymphoid tissue lymphoma translocation protein 1 (Homo sapiens) (UniProt Q9UDY8); assay: Allosteric inhibition of MALT1 in human OCI-LY3 cells assessed as repression of IRF4 at 50 to 5000 nM incubated for 24 hrs by Western blot analysis; assay type: cell-based; settings: OCILY3, filed as negative allosteric modulator, dose 50-5000 nM
T2 sequence (whole entry): T1 sequence (Q9UDY8 whole entry)

[25] = Solubility of the compound at pH 6.8; assay type: physicochemical; settings: buffer
OCI-Ly3 [26] = assay: Antiproliferative activity against human OCI-LY3 cells assessed as assessed as reduction in colony formation incubated for 14 days by soft-agar assay; assay type: functional, cell-based; settings: dose 19.5-10000 nM, time 14.0 day
[27] = Drug concentration in Balb/c mouse blood at 10 mg/kg, po BID by LC-MS/MS analysis; assay type: ADME, organism-based; settings: in vivo, read-out: Drug uptake
[28] = Drug concentration in Balb/c mouse blood at 10 mg/kg, po BID administered at 12 hrs interval immunized post 1 hr first treatment measured after 12 hrs post second dose by LC-MS/MS analysis; assay type: ADME, organism-based; settings: whole blood, read-out: Drug uptake

half-life [1]: 1.9 h
pIC50 (OCI-Ly3 [2]): < 5.00
log(permeability) [3]: -4.2
AUC/dose [4]: 547 nM·h
Tmax [5]: 2 h
concentration [7]: 9.3 µM
pIC50 [8]: 6.22
clearance [9]: 11 mL/min/kg
fraction unbound [10]: 0.013
Vd [13]: 9.4 L/kg
AUC/dose [14]: 3100 nM·h
pIC50 [15]: 8.05
bioavailability [16]: 99%
Vd [17]: 1.5 L/kg
fraction unbound [18]: 0.011
concentration [20]: 23.6 µM
pIC50 [22]: 6.80
bioavailability [23]: 61%
inhibition [24]: Active
solubility [25]: 266 µM (≈ 125 µg/mL)
concentration [27]: 2.6 µM
concentration at 12 h [28]: 0.04 µM
SMILES: C[C@H]1COC[C@H](C)N1c1c(NC(=O)Nc2ccnc(C(F)(F)F)c2)cnc2cc(Cl)nn12
Activity (TMD8): Active
Activity [6]: Non-Toxic
Activity (Mus musculus [11]): Active
Activity (Mus musculus [12]): Dose-dependent effect
Activity (Mus musculus [19]): 25%
Activity [21]: Non-Toxic
pIC50 (BJAB): 5.70
Activity (OCI-Ly3 [26]): Dose-dependent effect
